Where two headings read alike, the source gives them in different places.
What was measured:
[1] = target: T1, recombinant Abl1 kinase (Homo sapiens, UniProt P00519); experiment: Recombinant Abl1 kinase inhibition assay ([γ-33P]ATP, peptide substrate); format: biochemical
T1 construct: made in house
Description: The reactions were stopped by adding 5 µL of 3% aq. H3PO4. […] H3PO4, and air-dried.

[2] = system: KBM5; experiment: Cytotoxicity assay (resazurin) on KBM5; format: cell-based; settings: Homo sapiens, KBM5; 72 h, resazurin assay; read-out: GI50 KBM5
[3] = system: BV173; experiment: Cytotoxicity assay (resazurin) on BV173; format: cell-based; settings: Homo sapiens, BV-173, 72 h
Description: (§1) Human cell lines KCL22 and BV173 were obtained from the German Collection of Microorganisms and Cell Cultures, K562 and HEK-293T from the European Collection of Authenticated Cell Cultures. KBM5 cell line was kindly gifted by Vladimír Divoký. Development of KCL22 subclones B8 (T315I, 100%), F4 (E255K, 100%), and B10 (Y253H, 50%) was reported previously. All cell lines were cultivated in humidified incubator at 37 °C and in 5% CO2 according to the provider’s instructions in appropriate media supplemented with 10% fetal bovine serum, penicillin (100 IU/mL), streptomycin (100 µg/mL), and glutamine (4 mM).
(§2) Cytotoxicity was determined using resazurin, an indicator dye to measure oxidation-reduction reactions occurring in the mitochondria of live cells. The cells were seeded into 96-well plates and treated with compounds for 72 h (six different doses of each, in triplicate). After treatment, resazurin (Merck, Darmstadt, Germany) solution was added for 4 h, and the fluorescence of formed resorufin corresponding to live cell quantity was measured at 544 nm/590 nm (excitation/emission) using a Fluoroskan Ascent microplate reader (Labsystems, Vantaa, Finland).

[4] = system: K562; experiment: Cytotoxicity assay (resazurin) on K562; format: cell-based; settings: Homo sapiens, 72 h
Description: as §1, §2

[5] = system: HEK-293T; experiment: Cytotoxicity assay (resazurin) on non-neoplastic HEK-293T; format: cell-based; settings: Homo sapiens, 72 h, non-neoplastic cells
Description: as §1, §2

[6] = system: KCL22 cells containing Bcr-Abl^WT; experiment: Cytotoxicity assay (resazurin) on KCL22 WT; format: cell-based, human; settings: Homo sapiens, KCL-22, 72 h, read-out: GI50 KCL22 WT
[7] = system: KCL22 B8 (T315I, 100%); experiment: Cytotoxicity assay (resazurin) on KCL22 subclone B8; format: cell-based; settings: Homo sapiens, KCL-22, read-out: GI50 KCL22 B8 T315I (100%), 72 h
Description: as §1, §2

[8] = system: KCL22 F4 (E255K, 100%); experiment: Cytotoxicity assay (resazurin) on KCL22 subclone F4; format: cell-based; settings: Homo sapiens, KCL-22, read-out: GI50 KCL22 F4 E255K (100%), 72 h
Description: as §1, §2

[9] = system: KCL22 B10 (Y253H, 50%); experiment: Cytotoxicity assay (resazurin) on KCL22 subclone B10; format: cell-based; settings: Homo sapiens, KCL-22, read-out: GI50 KCL22 B10 Y253H (50%), 72 h
Description: as §1, §2

[10] = system: KBM5, BV173, K562 (Bcr-Abl rearranged cell lines); experiment: Cytotoxicity across cell lines with Bcr-Abl rearrangement; format: cell-based; settings: Homo sapiens, read-out: GI50 in Bcr-Abl rearranged cell lines (span over cell lines)
Description: as §1, §2

[11] = system: KCL22 WT cells; experiment: Cell cycle flow cytometry, KCL22 WT; format: cell-based, human; settings: 24 h treatment, increasing concentration up to 5 µM
Description: (§3) The cell lines were seeded into 96-well plates and then treated with compounds for 24 h. After treatment, the cells were directly stained by adding 5 × staining solution (17 mM trisodium citrate dihydrate, 0.5% IGEPAL® CA-630, 7.5 mM spermine tetrahydrochloride, 2.5 mM Tris; pH 7.6 containing 50 μg/mL propidium iodide). DNA content was measured by flow cytometry using a 488 nm laser (BD FACS Verse with software BD FACSuite™, version 1.0.6.). Cell cycle distribution was analyzed using ModFit LT 5.0.9 (Verity Software House, Augusta, ME, USA).

[12] = system: KCL22 B8 cell line containing Bcr-Abl^T315I; experiment: Cell cycle flow cytometry, KCL22 B8; format: cell-based, human; settings: 24 h treatment
Description: The cell lines were seeded into 96-well plates and then treated with compounds for 24 h. After treatment, the cells were directly stained by adding 5 × staining solution (17 mM trisodium citrate dihydrate, 0.5% IGEPAL® CA-630, 7.5 mM spermine tetrahydrochloride, 2.5 mM Tris; pH 7.6 containing 50 μg/mL propidium iodide). […] Cell cycle distribution was analyzed using ModFit LT 5.0.9 (Verity Software House, Augusta, ME, USA).

[13] = system: KCL22 F4 (E255K); experiment: Cell cycle flow cytometry, KCL22 F4; format: cell-based, human; settings: 24 h treatment
Description: as §3

[14] = system: KCL22 B10 (Y253H); experiment: Cell cycle flow cytometry, KCL22 B10; format: cell-based, human; settings: 24 h treatment
Description: as §3

[15] = system: p-Crkl, p-STAT5, PARP, cyclin A in WT KCL22 cell line; experiment: Immunoblotting of Bcr-Abl pathway proteins, WT KCL22; format: cell-based, human; settings: immunoblot, 24 h treatment
Description: (§4) Cell lysates were separated on SDS–polyacrylamide gels and electroblotted onto nitrocellulose membranes. After blocking, overnight incubation with specific primary antibodies was performed, followed by wash and incubation with peroxidase-conjugated secondary antibodies (Cell Signalling). Peroxidase activity was detected with SuperSignal West Pico reagents (Thermo Scientific, Waltham, MA, USA) using a CCD camera LAS-4000 (Fujifilm, Tokyo, Japan). The following specific primary antibodies were used: Cell Signalling: anti-STAT5 (#94205), anti-p-STAT5 Y694 (#9351), anti-Crkl (#3182), anti-p-Crkl Y207 (#3181), anti-cyclin A (#4656), anti-p-Bcr Y177 (#3901), and anti-PARP (#9532); Santa Cruz Biotechnology: anti-β-actin (#sc-47778).

[16] = system: STAT5 phosphorylation, PARP cleavage in KCL22 F4; experiment: Immunoblotting of Bcr-Abl pathway proteins, KCL22 F4; format: cell-based, human; settings: immunoblot, 24 h treatment
Description: as §4

[17] = system: STAT5 phosphorylation, PARP cleavage in KCL22 B10; experiment: Immunoblotting of Bcr-Abl pathway proteins, KCL22 B10; format: cell-based, human; settings: immunoblot, 24 h treatment
Description: as §4

[18] = system: KCL22 models (WT, B8, F4, B10); experiment: Cytotoxicity across all KCL22 models; format: cell-based; settings: Homo sapiens, KCL-22, read-out: GI50 in all KCL22 models (span over models)
Description: as §1, §2

[19] = target: T1, recombinant Abl1 kinase; settings: Figure 2A, compounds with longer N-9 substituents; read-out: IC50 Bcr-Abl; cited from earlier work
[20] = from the IC50 of Table S1, read-out: pIC50 (Table S1) (converted)
[21] = recombinant Abl1, 1 µM ATP, at least three independent experiments, read-out: IC50 Abl

T1 sequence (P00519 whole entry): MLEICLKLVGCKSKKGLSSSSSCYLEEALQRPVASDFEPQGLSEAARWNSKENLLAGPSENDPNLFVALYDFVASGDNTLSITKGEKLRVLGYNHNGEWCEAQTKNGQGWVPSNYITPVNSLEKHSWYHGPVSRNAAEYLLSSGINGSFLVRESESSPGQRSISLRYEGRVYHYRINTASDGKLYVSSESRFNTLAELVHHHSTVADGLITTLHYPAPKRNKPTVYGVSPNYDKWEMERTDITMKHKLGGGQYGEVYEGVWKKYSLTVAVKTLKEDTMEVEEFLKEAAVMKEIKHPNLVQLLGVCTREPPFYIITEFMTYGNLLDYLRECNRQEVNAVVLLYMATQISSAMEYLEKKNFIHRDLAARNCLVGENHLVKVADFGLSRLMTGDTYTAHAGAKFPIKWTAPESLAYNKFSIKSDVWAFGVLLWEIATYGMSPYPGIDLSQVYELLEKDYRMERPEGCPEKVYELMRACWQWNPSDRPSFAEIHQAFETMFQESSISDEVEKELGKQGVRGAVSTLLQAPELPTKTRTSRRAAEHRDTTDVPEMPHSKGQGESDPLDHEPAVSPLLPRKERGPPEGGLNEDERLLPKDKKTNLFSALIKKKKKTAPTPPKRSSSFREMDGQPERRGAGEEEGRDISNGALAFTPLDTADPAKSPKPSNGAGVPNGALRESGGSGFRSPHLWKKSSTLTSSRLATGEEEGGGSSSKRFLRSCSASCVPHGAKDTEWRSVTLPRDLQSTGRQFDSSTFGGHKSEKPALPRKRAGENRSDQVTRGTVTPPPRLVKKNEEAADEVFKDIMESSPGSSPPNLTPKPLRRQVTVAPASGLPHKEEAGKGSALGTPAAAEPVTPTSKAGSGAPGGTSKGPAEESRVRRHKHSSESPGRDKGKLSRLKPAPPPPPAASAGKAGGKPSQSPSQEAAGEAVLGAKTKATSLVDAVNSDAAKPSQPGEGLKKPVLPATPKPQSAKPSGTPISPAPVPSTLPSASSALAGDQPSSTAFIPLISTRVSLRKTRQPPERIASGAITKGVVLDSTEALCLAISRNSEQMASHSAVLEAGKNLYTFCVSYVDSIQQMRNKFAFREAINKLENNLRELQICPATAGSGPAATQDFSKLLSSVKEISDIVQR

Row | IC50 [1, 20] | IC50 [1, 21] | Structure (SMILES) | GI50 [2] | GI50 [3] | GI50 [4] | GI50 [5] | GI50 [6] | GI50 [7] | GI50 [8] | GI50 [9] | Effect on cell cycle distribution, KCL22 B8 (T315I) [12] | further results
1 | 0.014 µM | 0.015 ± 0.01 µM | OCCN1CCN(c2ccc(Nc3nc(Nc4cccc(F)c4)c4ncn(CC5CC5)c4n3)cc2)CC1 [Compound 11b, 2-(4-(4-((9-(Cyclopropylmethyl)-6-((3-fluorophenyl)amino)-9H-purin-2-yl)amino)phenyl)piperazin-1-yl)ethan-1-ol] | 1.3 ± 0.1 µM | 1.5 ± 0.2 µM | 0.7 ± 0.2 µM | 5.5 ± 0.6 µM | 2 ± 0.4 µM | 11.5 ± 1.1 µM | 4.1 ± 0.1 µM | 2.6 ± 0.2 µM | resistant | GI50 [10]: 0.7 to 1.3 µM; Effect on cell cycle distribution, KCL22 WT [11]: significant block of WT cells in G1 phase; Effect on cell cycle distribution, KCL22 F4 [13]: arrested F4 and B10 mutant models in G1 phase; Effect on cell cycle distribution, KCL22 B10 [14]: arrested F4 and B10 mutant models in G1 phase; Effect on Bcr-Abl downstream proteins, WT KCL22 [15]: downregulated the levels of p-Crkl and p-STAT5; Effect on Bcr-Abl downstream proteins, KCL22 F4 [16]: significantly pronounced in both mutant cell lines; Effect on Bcr-Abl downstream proteins, KCL22 B10 [17]: significantly pronounced in both mutant cell lines
2 | 0.13 µM | 0.131 ± 0.071 µM | CC(C)CCn1cnc2c(Nc3cccc(F)c3)nc(Nc3ccc(N4CCN(CCO)CC4)cc3)nc21 [Compound 11e, 2-(4-(4-((6-((3-Fluorophenyl)amino)-9-isopentyl-9H-purin-2-yl)amino)phenyl)piperazin-1-yl)ethan-1-ol] | 5 ± 0.1 µM | 3.8 ± 0.1 µM | 4.3 ± 0.2 µM | 4.7 ± 0.7 µM | 6.1 ± 0.1 µM | 6.9 ± 0.8 µM | 5.6 ± 0.5 µM | 6.9 ± 0.1 µM | resistant | IC50 ([1]; as listed in Table S1, Bcr-Abl WT, read-out: IC50 (Table S1)): 0.13 µM; GI50 [18]: 5.6 to 6.9 µM
3 | – | – | CC(C)CCn1cnc2c(Nc3ccc(F)c(F)c3)nc(Nc3ccc(N4CCN(C)CC4)cc3)nc21 [IV] | – | – | – | – | – | – | – | – | – | IC50 [19]: 2.28 µM
